Assay results as given in patent US20240408065A1, “CYANO COMPOUND, AND PREPARATION METHOD THEREFOR AND USE THEREOF” (SHANGHAI INSTITUTE OF MATERIA MEDICA, CHINESE ACADEMY OF …, priority 2021, published 2024).
Values joined by “and” are separate entries in the source; they are usually repeats but may differ in a detail not shown here. Equal values may be shown once.

Legend:
SARS-CoV-2 3CLpro = target: T1, SARS-CoV-2 3CLpro (Severe acute respiratory syndrome coronavirus 2, UniProt P0DTD1); assay: biochemical; conditions: protease 30 nM, substrate 20 μM
T1 construct: The SARS-CoV-2 3CL^pro protease and different concentrations of the compounds were added to a 96-well plate

[1] = tested on: SARS-CoV-2 Omicron strain (B.1.1.529); assay: microbe, parasite or virus in culture; conditions: Severe acute respiratory syndrome coronavirus 2, Vero C1008
SARS-CoV-2 delta strain = conditions: mouse, in vivo
[2] = cynomolgus monkey, in vivo
in vitro = conditions: African green monkey
Description: In the cytotoxicity test, Vero E6 cells were digested and placed in a culture medium (90% DMEM, 10% fetal bovine serum), inoculated into a 96-well plate at 20000 cells per well, and cultured overnight. The compound to be tested was dissolved in DMSO to prepare a 40 mM stock solution, and further serially diluted with a culture medium or a culture medium containing 0.5 μM Pgp inhibitor to obtain the concentration required for the test.

[3] = tested on: SARS-CoV-2 B.1.351 strain; assay: microbe, parasite or virus in culture; conditions: Severe acute respiratory syndrome coronavirus 2, Vero C1008, 24 h
[4] = tested on: 47 safety-related targets; conditions: read-out: ECo on 47 safety-related targets
Excerpt: For the 78 tests related to the 47 safe targets, the experimental methods used include: cAMP assay, calcium flux assay, hormone nuclear receptor assay, kinase binding assay, enzyme activity assay, neurotransmitter transporter assay, ion channel assay, and transporter assay.

| Compound | IC50 (SARS-CoV-2 3CLpro) [nM] | other results |
| --- | --- | --- |
| CC(C)(C)OC(=O)N[C@H](C(=O)N1CC2(C[C@H]1C(=O)N[C@H](C#N)C[C@@H]1CCNC1=O)SCCS2)C(C)(C)C [Compound 1] | < 100 | – |
| CC(C)(C)[C@H](NC(=O)C(F)(F)F)C(=O)N1CC2(C[C@H]1C(=O)N[C@H](C#N)C[C@@H]1CCNC1=O)SCCS2 [Compound 2] | – | IC50 [1]: 120 nM; Viral load, brain tissue, Day 2 (SARS-CoV-2 delta strain): 0.77 ± 0.20 log10 copies/mg and 1.04 ± 0.24 log10 copies/mg; Viral load, lung tissue, Day 4 (SARS-CoV-2 delta strain): 7.88 ± 0.74 log10 copies/g and 7.48 ± 0.63 log10 copies/g; body weight of the mice (SARS-CoV-2 delta strain): did not decrease significantly; decrease of virus copy number in the lung compared with the model group (SARS-CoV-2 delta strain): 2.4 log 10 copies/g; decrease of virus titer in the lung compared with the model group (SARS-CoV-2 delta strain): more than 3 log 10 PFU/g; effect on virus titer in the lung (SARS-CoV-2 delta strain): sustained inhibitory effect; histopathological analysis of the lung (SARS-CoV-2 delta strain): significantly improved lung damage; virus titer in the brain (plaque test) (SARS-CoV-2 delta strain): no virus titer was determined; virus titer in the lung (plaque test) (SARS-CoV-2 delta strain): no titer was detected; arrhythmia [2]: no arrhythmia related to the test product; change in the cardiovascular system [2]: no change in the cardiovascular system related to the test product; changes in ECG parameters or blood pressure [2]: no changes in ECG parameters or blood pressure related to the test product; CC50 (in vitro): > 500000 nM; EC50 [3]: 730 nM; EC50 [4]: > 100000 nM |
| CC(=O)N[C@H](C(=O)N1CC2(C[C@H]1C(=O)N[C@H](C#N)C[C@@H]1CCNC1=O)SCCS2)C(C)(C)C [Compound 3] | < 100 | – |
| CC(C)(C)[C@H](NC(=O)C1CC1)C(=O)N1CC2(C[C@H]1C(=O)N[C@H](C#N)C[C@@H]1CCNC1=O)SCCS2 [Compound 4] | < 100 | – |
| COC(=O)N[C@H](C(=O)N1CC2(C[C@H]1C(=O)N[C@H](C#N)C[C@@H]1CCNC1=O)SCCS2)C(C)(C)C [Compound 6] | 100 to 1000 | – |
| CC(C)(C)[C@H](NC(=O)c1ccccc1)C(=O)N1CC2(C[C@H]1C(=O)N[C@H](C#N)C[C@@H]1CCNC1=O)SCCS2 [Compound 8] | 1000 to 10000 | – |
| CC(C)(C)[C@H](NC(=O)c1cc(C(F)(F)F)cc(C(F)(F)F)c1)C(=O)N1CC2(C[C@H]1C(=O)N[C@H](C#N)C[C@@H]1CCNC1=O)SCCS2 [Compound 9] | 1000 to 10000 | – |
| Cc1cc(C)cc(C(=O)N[C@H](C(=O)N2CC3(C[C@H]2C(=O)N[C@H](C#N)C[C@@H]2CCNC2=O)SCCS3)C(C)(C)C)c1 [Compound 10] | 1000 to 10000 | – |
| CC(C)(C)[C@H](NC(=O)CC(F)(F)F)C(=O)N1CC2(C[C@H]1C(=O)N[C@H](C#N)C[C@@H]1CCNC1=O)SCCS2 [Compound 11] | 100 to 1000 | – |
| CC(C)(C)[C@H](NC(=O)c1cccnc1)C(=O)N1CC2(C[C@H]1C(=O)N[C@H](C#N)C[C@@H]1CCNC1=O)SCCS2 [Compound 12] | 1000 to 10000 | – |
| CC(C)(C)[C@H](NC(=O)C(F)(F)C(F)(F)F)C(=O)N1CC2(C[C@H]1C(=O)N[C@H](C#N)C[C@@H]1CCNC1=O)SCCS2 [Compound 13] | < 100 | – |
| N#C[C@H](C[C@@H]1CCNC1=O)NC(=O)[C@@H]1CC2(CN1C(=O)[C@@H](NC(=O)C(F)(F)F)C1CCCC1)SCCS2 [Compound 14] | < 100 | – |
| CC(C)(C)[C@H](NS(=O)(=O)c1ccccc1)C(=O)N1CC2(C[C@H]1C(=O)N[C@H](C#N)C[C@@H]1CCNC1=O)SCCS2 [Compound 17] | 1000 to 10000 | – |
| CC(C)(C)[C@H](NC(=O)C(F)(F)F)C(=O)N1CC2(C[C@H]1C(=O)N[C@H](C#N)C[C@@H]1CCNC1=O)OCCO2 [Compound 18] | < 100 | – |
| CC(C)(C)[C@H](NC(=O)C(F)(F)F)C(=O)N1C[C@H](Sc2ccccc2)C[C@H]1C(=O)N[C@H](C#N)C[C@@H]1CCNC1=O [Compound 19] | 1000 to 10000 | – |
| CC(C)(C)[C@H](NC(=O)c1c(F)c(F)c(F)c(F)c1F)C(=O)N1CC2(C[C@H]1C(=O)N[C@H](C#N)C[C@@H]1CCNC1=O)SCCS2 [Compound 20] | 100 to 1000 | – |
| N#C[C@H](C[C@@H]1CCNC1=O)NC(=O)[C@@H]1CC2(CN1C(=O)[C@@H](NC(=O)C1(F)CC1)C1CCCC1)SCCS2 [Compound 21] | < 100 | – |
| CC(C)(C)[C@H](NC(=O)C(F)(F)C(F)(F)F)C(=O)N1CC2(C[C@H]1C(=O)N[C@H](C#N)C[C@@H]1CCCNC1=O)SCCS2 [Compound 22] | < 100 | – |
| N#C[C@H](C[C@@H]1CCNC1=O)NC(=O)[C@@H]1CC2(CN1C(=O)[C@@H](NC(=O)C(F)(F)F)C13CC4CC(CC(C4)C1)C3)SCCS2 [Compound 23] | < 100 | – |
